Measurements as given in article PMC9030254, “Target Hopping from Protein Kinases to PXR: Identification of Small-Molecule Protein Kinase Inhibitors as Selective Modulators of Pregnane X Receptor from TüKIC Library” (Cells, 2022).

Legend:
Assay in all cases: Kinase profiling
Format in all cases: biochemical
EIF2AK3 = biological target: T1, EIF2AK3 (Homo sapiens, UniProt Q9NZJ5)
T1 construct: purchased ProQinase (Freiburg, Germany)
T1 sequence (Q9NZJ5 30-1116): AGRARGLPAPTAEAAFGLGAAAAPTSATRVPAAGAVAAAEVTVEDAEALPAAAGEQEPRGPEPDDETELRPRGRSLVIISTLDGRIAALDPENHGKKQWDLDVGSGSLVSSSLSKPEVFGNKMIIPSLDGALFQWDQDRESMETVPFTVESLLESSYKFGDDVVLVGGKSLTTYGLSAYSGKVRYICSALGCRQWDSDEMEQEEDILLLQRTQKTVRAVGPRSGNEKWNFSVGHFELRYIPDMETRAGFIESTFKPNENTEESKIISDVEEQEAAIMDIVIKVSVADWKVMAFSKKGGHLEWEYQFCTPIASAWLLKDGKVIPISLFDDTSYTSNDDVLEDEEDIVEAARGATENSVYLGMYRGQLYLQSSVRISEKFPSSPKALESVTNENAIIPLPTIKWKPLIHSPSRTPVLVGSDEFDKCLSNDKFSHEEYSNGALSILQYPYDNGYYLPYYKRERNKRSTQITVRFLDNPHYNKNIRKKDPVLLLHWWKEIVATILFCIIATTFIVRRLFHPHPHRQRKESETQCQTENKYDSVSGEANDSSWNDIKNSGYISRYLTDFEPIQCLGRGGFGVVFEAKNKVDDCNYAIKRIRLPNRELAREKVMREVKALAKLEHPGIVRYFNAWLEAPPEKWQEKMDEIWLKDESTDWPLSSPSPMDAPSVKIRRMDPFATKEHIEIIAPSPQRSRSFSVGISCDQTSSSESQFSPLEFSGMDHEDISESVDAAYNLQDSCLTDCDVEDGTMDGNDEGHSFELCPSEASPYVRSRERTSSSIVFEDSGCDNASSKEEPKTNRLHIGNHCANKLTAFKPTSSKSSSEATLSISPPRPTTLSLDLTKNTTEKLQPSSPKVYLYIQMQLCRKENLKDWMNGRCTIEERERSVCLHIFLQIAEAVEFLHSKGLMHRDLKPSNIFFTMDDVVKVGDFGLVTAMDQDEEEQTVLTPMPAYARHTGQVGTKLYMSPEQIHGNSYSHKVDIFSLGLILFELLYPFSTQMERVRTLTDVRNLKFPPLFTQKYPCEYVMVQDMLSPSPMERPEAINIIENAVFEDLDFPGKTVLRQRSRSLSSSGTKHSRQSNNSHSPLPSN
Protocol: (§1) The analysis was performed by ProQinase (Freiburg, Germany).

EPHB2 = biological target: T2, EPHB2 (Homo sapiens, UniProt P29323)
T2 construct: purchased ProQinase (Freiburg, Germany)
T2 sequence (P29323 19-1055): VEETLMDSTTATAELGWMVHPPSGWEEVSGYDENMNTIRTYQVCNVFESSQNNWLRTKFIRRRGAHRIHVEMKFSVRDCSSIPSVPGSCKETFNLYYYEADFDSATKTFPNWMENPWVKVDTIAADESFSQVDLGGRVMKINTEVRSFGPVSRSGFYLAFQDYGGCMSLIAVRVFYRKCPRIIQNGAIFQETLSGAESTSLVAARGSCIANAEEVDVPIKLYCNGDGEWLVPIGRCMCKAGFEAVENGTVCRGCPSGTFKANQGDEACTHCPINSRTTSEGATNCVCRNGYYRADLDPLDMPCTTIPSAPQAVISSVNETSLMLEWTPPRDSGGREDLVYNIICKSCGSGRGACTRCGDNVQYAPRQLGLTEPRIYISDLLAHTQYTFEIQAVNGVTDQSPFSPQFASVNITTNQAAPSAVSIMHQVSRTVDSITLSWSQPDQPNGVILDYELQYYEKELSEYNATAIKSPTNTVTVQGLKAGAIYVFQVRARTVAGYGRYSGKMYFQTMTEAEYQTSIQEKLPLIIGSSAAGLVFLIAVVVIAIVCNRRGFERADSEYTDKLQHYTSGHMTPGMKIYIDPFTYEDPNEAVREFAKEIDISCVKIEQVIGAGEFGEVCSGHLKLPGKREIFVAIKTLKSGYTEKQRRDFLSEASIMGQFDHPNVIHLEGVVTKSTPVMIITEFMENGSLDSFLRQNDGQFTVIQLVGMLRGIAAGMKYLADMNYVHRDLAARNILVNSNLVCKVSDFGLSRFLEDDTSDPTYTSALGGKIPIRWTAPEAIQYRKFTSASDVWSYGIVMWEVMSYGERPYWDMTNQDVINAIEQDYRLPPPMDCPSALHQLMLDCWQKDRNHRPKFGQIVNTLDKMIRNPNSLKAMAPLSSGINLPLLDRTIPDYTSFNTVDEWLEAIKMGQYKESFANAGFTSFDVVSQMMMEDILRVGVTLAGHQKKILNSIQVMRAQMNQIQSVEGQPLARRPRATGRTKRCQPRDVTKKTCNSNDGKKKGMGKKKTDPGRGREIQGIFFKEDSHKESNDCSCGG
Protocol: as §1

PAK1 = biological target: T3, PAK1 (Homo sapiens, UniProt Q13153)
T3 construct: purchased ProQinase (Freiburg, Germany)
T3 sequence (Q13153 whole entry): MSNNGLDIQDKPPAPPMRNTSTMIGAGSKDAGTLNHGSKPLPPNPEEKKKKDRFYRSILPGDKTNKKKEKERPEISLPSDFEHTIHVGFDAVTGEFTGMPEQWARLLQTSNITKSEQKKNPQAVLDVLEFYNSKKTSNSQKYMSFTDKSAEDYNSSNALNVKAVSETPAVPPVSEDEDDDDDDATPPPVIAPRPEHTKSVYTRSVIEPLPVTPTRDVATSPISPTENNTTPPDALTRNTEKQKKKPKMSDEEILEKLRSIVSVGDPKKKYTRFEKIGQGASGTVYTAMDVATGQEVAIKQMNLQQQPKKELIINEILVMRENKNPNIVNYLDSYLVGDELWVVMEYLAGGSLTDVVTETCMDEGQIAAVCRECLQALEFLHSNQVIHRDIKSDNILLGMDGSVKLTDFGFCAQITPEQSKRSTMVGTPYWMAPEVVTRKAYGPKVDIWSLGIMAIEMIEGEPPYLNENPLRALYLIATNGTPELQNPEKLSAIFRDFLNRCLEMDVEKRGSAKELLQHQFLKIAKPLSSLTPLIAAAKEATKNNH
Protocol: as §1

CDK2/CycE1 = biological target: T4, CDK2/CycE1 (Homo sapiens, UniProt P24941)
T4 construct: purchased ProQinase (Freiburg, Germany)
Protocol: as §1

TLK2 = biological target: T5, TLK2 (Homo sapiens, UniProt Q86UE8)
T5 construct: purchased ProQinase (Freiburg, Germany)
T5 sequence (Q86UE8 whole entry): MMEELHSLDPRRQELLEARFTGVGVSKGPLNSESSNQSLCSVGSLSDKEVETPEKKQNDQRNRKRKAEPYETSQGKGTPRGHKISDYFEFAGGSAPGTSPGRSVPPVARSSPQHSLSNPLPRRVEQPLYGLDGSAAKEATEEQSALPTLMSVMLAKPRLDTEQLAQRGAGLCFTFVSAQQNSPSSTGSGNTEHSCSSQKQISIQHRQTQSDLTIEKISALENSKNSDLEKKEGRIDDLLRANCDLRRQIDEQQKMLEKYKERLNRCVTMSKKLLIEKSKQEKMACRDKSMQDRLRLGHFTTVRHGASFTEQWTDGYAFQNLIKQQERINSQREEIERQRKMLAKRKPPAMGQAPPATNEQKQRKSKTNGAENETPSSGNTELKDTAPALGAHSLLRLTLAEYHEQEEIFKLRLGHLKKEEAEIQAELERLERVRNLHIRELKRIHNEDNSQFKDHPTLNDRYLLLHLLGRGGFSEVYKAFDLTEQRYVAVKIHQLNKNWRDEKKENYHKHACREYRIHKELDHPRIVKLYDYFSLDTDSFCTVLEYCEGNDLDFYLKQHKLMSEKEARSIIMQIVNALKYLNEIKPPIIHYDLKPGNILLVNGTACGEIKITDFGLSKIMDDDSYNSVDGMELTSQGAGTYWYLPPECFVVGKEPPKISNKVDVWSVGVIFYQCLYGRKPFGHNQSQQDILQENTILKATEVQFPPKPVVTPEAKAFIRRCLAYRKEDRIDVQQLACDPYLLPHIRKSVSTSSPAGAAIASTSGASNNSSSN
Protocol: as §1

CSF1R = biological target: T6, CSF1R (Homo sapiens, UniProt P07333)
T6 construct: purchased ProQinase (Freiburg, Germany)
T6 sequence (P07333 20-972): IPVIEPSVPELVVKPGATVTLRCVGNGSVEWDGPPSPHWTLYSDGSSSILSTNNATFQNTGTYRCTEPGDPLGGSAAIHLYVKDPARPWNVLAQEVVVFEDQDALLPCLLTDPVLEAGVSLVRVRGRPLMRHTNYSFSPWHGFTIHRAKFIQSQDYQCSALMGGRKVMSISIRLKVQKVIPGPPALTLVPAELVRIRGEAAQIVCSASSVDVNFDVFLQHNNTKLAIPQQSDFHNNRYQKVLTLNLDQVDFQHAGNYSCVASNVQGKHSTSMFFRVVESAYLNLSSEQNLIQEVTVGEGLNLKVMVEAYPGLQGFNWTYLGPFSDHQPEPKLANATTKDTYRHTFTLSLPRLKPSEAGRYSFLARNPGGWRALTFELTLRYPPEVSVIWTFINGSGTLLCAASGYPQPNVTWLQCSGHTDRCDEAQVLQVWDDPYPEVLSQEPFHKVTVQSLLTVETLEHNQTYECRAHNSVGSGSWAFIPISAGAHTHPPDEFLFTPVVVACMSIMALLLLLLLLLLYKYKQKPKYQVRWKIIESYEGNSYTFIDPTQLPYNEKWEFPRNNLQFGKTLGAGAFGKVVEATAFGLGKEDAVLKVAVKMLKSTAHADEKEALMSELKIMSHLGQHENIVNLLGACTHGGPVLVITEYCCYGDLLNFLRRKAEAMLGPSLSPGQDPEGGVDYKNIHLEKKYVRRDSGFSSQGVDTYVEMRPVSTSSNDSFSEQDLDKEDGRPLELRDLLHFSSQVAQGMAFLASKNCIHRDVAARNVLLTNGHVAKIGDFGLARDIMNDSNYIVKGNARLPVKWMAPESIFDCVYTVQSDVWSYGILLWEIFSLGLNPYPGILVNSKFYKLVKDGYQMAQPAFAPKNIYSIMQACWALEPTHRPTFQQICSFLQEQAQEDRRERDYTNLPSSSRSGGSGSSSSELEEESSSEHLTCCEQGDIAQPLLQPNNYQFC
Protocol: as §1

ERK7 = biological target: T7, ERK7 (Homo sapiens, UniProt Q8TD08)
T7 construct: purchased ProQinase (Freiburg, Germany)
T7 sequence (Q8TD08 1-544): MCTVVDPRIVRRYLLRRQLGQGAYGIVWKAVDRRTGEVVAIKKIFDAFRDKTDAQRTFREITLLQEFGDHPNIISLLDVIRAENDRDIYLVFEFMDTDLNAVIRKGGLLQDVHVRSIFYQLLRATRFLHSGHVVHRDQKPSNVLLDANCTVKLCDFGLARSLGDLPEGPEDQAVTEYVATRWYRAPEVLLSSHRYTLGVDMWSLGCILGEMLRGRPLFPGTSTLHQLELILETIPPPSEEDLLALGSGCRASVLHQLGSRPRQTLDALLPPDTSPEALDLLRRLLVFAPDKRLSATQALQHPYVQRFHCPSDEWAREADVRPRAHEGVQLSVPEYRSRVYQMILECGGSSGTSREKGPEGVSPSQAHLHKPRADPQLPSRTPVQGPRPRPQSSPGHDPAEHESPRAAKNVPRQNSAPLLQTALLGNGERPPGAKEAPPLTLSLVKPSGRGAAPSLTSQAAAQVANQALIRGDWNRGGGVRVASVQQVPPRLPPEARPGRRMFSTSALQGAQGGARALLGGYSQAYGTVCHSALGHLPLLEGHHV
Protocol: as §1

Row | SMILES | Residual activity (EIF2AK3; 1.0E-05 M) | Residual activity (EIF2AK3; 1.0E-06 M) | Residual activity (EPHB2; 1.0E-05 M) | Residual activity (EPHB2; 1.0E-06 M) | Residual activity (PAK1; 1.0E-05 M) | Residual activity (PAK1; 1.0E-06 M) | Residual activity (CDK2/CycE1; 1.0E-05 M) | Residual activity (CDK2/CycE1; 1.0E-06 M) | Residual activity (TLK2; 1.0E-05 M) | Residual activity (TLK2; 1.0E-06 M) | Residual activity (CSF1R; 1.0E-05 M) | Residual activity (CSF1R; 1.0E-06 M) | Residual activity (ERK7; 1.0E-05 M) | Residual activity (ERK7; 1.0E-06 M)
1 | O=C(Cc1ccccc1)Nc1ccc(F)c(Nc2ccc3c(c2)CCCCC3=O)c1 [Compound 100] | 102 % of control | 94 % of control | 86 % of control | 93 % of control | 88 % of control | 87 % of control | 118 % of control | 86 % of control | 162 % of control | 135 % of control | 96 % of control | 100 % of control | 85 % of control | 96 % of control
2 | O=C(Nc1ccc(F)c(Nc2ccc3c(c2)CCCCC3=O)c1)c1cccc(F)c1 [Compound 109] | 92 % of control | 93 % of control | 84 % of control | 86 % of control | 80 % of control | 84 % of control | 103 % of control | 93 % of control | 207 % of control | 120 % of control | 94 % of control | 103 % of control | 98 % of control | 99 % of control
